Results published in PMC9120017, “Inhibition mechanism of the chloride channel TMEM16A by the pore blocker 1PBC” (Nature Communications, 2022).
Values after ≈ are worked out from the molar mass of the structure shown.

Assay: Solubility of 1PBC in aqueous solution
Assay type: physicochemical

N#Cc1c(C(F)(F)F)cc(O)n2c1nc1ccccc12 [1PBC]
solubility: ~100 µM (≈ 27.7 µg/mL)
